The results in this text go back to ChEMBL document CHEMBL3396995, “Synthesis and biological evaluation of novel pyrrolidine acid analogs as potent dual PPARα/γ agonists” (Bioorg Med Chem Lett, 2015).

In general, IC50 refers to the concentration at which inhibition is half-maximal. Read a high IC50 as weaker potency in that assay. As a reminder, the EC50 is the concentration giving half of the maximal effect.

The target in test [1] is T1, Peroxisome proliferator-activated receptor alpha (Homo sapiens, UniProt Q07869).
T1 sequence (Q07869 whole entry): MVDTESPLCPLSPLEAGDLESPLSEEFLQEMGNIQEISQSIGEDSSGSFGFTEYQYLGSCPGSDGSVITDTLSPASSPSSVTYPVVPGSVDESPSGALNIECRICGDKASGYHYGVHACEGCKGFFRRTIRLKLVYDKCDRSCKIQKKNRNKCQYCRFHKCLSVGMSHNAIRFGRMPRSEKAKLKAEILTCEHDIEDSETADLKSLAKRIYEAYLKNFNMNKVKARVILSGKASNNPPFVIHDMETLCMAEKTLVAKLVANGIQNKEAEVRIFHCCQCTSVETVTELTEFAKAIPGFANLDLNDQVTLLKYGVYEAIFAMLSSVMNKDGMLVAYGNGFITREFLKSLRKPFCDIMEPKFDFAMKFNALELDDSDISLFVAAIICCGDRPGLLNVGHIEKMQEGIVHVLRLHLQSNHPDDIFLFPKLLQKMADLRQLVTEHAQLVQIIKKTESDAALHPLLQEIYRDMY
Description: Binding affinity to PPARalpha (unknown origin) using fluorescein-tagged dual PPARalpha/gamma activator by homogeneous fluorescence polarization binding assay. (In fluorescence polarisation assays a small probe gives low polarisation when free and higher when bound to something large.)

Test [2] has as its target T2, Peroxisome proliferator-activated receptor gamma (Homo sapiens, UniProt P37231).
T2 sequence (P37231 whole entry): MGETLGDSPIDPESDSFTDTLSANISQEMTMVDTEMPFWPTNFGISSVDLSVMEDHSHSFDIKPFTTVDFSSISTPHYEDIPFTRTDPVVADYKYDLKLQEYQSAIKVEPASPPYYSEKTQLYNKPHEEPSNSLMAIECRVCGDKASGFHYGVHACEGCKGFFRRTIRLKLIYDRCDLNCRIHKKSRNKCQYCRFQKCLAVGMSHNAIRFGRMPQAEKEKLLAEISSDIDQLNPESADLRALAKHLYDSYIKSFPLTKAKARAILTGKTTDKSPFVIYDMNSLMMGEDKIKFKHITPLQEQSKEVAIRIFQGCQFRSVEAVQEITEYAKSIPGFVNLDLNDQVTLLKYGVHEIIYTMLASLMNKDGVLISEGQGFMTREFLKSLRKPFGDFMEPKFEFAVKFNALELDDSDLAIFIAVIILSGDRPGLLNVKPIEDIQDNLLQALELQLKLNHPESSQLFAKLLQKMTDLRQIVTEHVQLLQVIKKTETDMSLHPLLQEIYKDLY
Description: Binding affinity to PPARgamma (unknown origin) using fluorescein-tagged dual PPARalpha/gamma activator by homogeneous fluorescence polarization binding assay

Test [3] has as its target T1, Peroxisome proliferator-activated receptor alpha. Description: Agonist activity at GAL4 tagged human PPARalpha ligand binding domain expressed in HEK293 cells by luciferase reporter gene assay. The format is cell-based.
Test [4] addresses T2, Peroxisome proliferator-activated receptor gamma. Description: Agonist activity at GAL4 tagged human PPARgamma ligand binding domain expressed in HEK293 cells by luciferase reporter gene assay. The format is cell-based. (In general: A reporter such as luciferase makes a cellular process visible.)

In the case of `Cc1oc(-c2ccccc2)nc1CCOc1ccc(CC[C@H]2CN(C(=O)Oc3ccccc3)C[C@@H]2C(=O)O)cc1` (racemic), the results for the IC50 in test [1] and in test [2] were 3250 nM and 340 nM, respectively. The 50% effective concentration (EC50) in test [3] (read-out: EC50) is 980 nM; in test [4], above 10000 nM.
For the compound `CCOC(=O)N1C[C@H](CCc2ccc(OCCc3nc(-c4ccccc4)oc3C)cc2)[C@@H](C(=O)O)C1` (racemic), the IC50 worked out at 1810 nM in test [1] and 1590 nM in test [2]. Further, the 50% effective concentration (EC50) in test [3] (read-out: EC50) is 10 nM; in test [4], above 10000 nM.
With `COc1ccc(OC(=O)N2[C@H](C(=O)O)CC[C@H]2c2ccc(OCCc3nc(-c4ccccc4)oc3C)cc2)cc1`, the EC50 entry was “Not Active” in test [3] (hek293) and 50 nM in test [4].
The compound `CCOC(=O)N1C[C@H](CC(=O)O)[C@@H](Cc2cccc(OCCc3nc(-c4ccccc4)oc3C)c2)C1` (racemic) gave an IC50 in test [1] of 2120 nM. Moreover, the half-maximal effective concentration (EC50) was 6 nM in test [3] (read-out: EC50) and above 10000 nM in test [4].
On to `Cc1oc(-c2ccccc2)nc1CCOc1cccc(C[C@@H]2CN(C(=O)Oc3ccccc3)C[C@@H]2C(=O)O)c1`, for which the IC50 in test [1] is 70 nM; in test [2], 490 nM. Further, the EC50 in test [3] (read-out: EC50) was determined as 4 nM; in test [4] it was 2000 nM.
Consider `Cc1oc(-c2ccccc2)nc1CCOc1cccc(C[C@@H]2CN(c3ccccc3)C[C@@H]2C(=O)O)c1` (racemic), for which the values for the IC50 in test [1] and in test [2] were 40 nM and 220 nM, respectively. Also, the EC50 was 20 nM in test [3] (read-out: EC50) and 3410 nM in test [4].
With `CCOC(=O)N1C[C@H](C(=O)O)[C@H](c2ccc(OCCc3nc(-c4ccccc4)oc3C)cc2)C1` (racemic), the half-inhibitory concentration (IC50) in test [1] and in test [2] was above 10000 nM in each case. The half-maximal effective concentration (EC50) in test [3] (read-out: EC50) is above 15000 nM; in test [4], above 32000 nM.
Consider `CCOC(=O)N1C[C@H](CC(=O)O)[C@@H](c2cccc(OCCc3nc(-c4ccccc4)oc3C)c2)C1` (racemic), for which the IC50 in test [1] is above 10000 nM; in test [2], 5460 nM. Further, the EC50 in test [3] (read-out: EC50) amounted to 8100 nM; in test [4] it was 9680 nM.
On the same counts, the results for `Cc1ccnc(N2C[C@@H](Cc3ccc(OCCc4nc(-c5ccccc5)oc4C)cc3)[C@@H](C(=O)O)C2)n1` (racemic) are 3980 nM, 450 nM, 170 nM and 630 nM.
With `Cc1oc(-c2ccccc2)nc1CCOc1ccc([C@H]2CN(C(=O)Oc3ccccc3)C[C@@H]2C(=O)O)cc1` (racemic), the half-inhibitory concentration (IC50) in test [1] was determined as 2860 nM; in test [2] it was 5860 nM. For the same compound, the values for the concentration giving a half-maximal response (EC50) in test [3] (read-out: EC50) and in test [4] were 2580 nM and 10 nM, respectively.
As for `Cc1oc(-c2ccccc2)nc1CCOc1cccc(CC[C@@H]2CN(C(=O)Oc3ccccc3)C[C@@H]2C(=O)O)c1` (racemic), the IC50 in test [1] was found to be 1060 nM; in test [2], 210 nM. Also, the values for the EC50 in test [3] (read-out: EC50) and in test [4] were 8 nM and 630 nM, respectively.
Turning to `CCOC(=O)N1C[C@@H](Cc2ccc(OCCc3nc(-c4ccccc4)oc3C)cc2)[C@@H](C(=O)O)C1` (racemic), the figures for the half-inhibitory concentration (IC50) in test [1] and in test [2] were 2020 nM and 2680 nM, respectively. Moreover, the half-maximal effective concentration (EC50) in test [3] (read-out: EC50) amounted to 6 nM; in test [4], 300 nM.
On the same counts, the results for `Cc1oc(-c2ccccc2)nc1CCOc1ccc(C[C@H]2CN(c3nccc(C(F)(F)F)n3)C[C@H]2C(=O)O)cc1` are above 10000 nM, 1530 nM, above 10000 nM and above 10000 nM.
For `CCOC(=O)N1C[C@@H](CCc2ccc(OCCc3nc(-c4ccccc4)oc3C)cc2)[C@@H](C(=O)O)C1` (racemic) the same measures were 3270 nM, 690 nM, 20 nM and 540 nM.
Turning to `Cc1oc(-c2ccccc2)nc1CCOc1cccc(C[C@H]2CN(C(=O)Oc3ccccc3)C[C@@H]2C(=O)O)c1` (racemic), the IC50 amounted to 3090 nM in test [1] and 3630 nM in test [2]. Besides, the results for the EC50 in test [3] (read-out: EC50) and in test [4] were 2590 nM and 6170 nM, respectively.
Turning to `Cc1oc(-c2ccccc2)nc1CCOc1cccc(C[C@@H]2CN(c3nccc(C(F)(F)F)n3)C[C@@H]2C(=O)O)c1`, the IC50 in test [1] is 20 nM; in test [2], 40 nM. In addition, the EC50 in test [3] (read-out: EC50) came out at 14 nM; in test [4], 2500 nM.
Turning to `Cc1oc(-c2ccccc2)nc1CCOc1ccc(CC[C@@H]2CN(C(=O)Oc3ccccc3)C[C@@H]2C(=O)O)cc1` (racemic), the figures for the concentration for half-maximal inhibition (IC50) in test [1] and in test [2] were 480 nM and 90 nM, respectively. Besides, the EC50 in test [3] (read-out: EC50) worked out at 10 nM; in test [4], 160 nM.
As for `CCOC(=O)N1C[C@H](CC(=O)O)[C@H](c2ccc(OCCc3nc(-c4ccccc4)oc3C)cc2)C1` (racemic), the IC50 in test [1] and in test [2] was above 10000 nM each time.
In the case of `CCOC(=O)N1C[C@H](CC(=O)O)[C@H](c2cccc(OCCc3nc(-c4ccccc4)oc3C)c2)C1` (racemic), the half-inhibitory concentration (IC50) in test [1] amounted to 990 nM; in test [2] it was 910 nM. Moreover, the values for the EC50 in test [3] (read-out: EC50) and in test [4] were 1130 nM and 20 nM, respectively.
As to `Cc1oc(-c2ccccc2)nc1CCOc1cccc(C[C@@H]2CN(c3ccccc3)C[C@@H]2C(=O)O)c1`, the IC50 in test [1] stood at 70 nM; in test [2] it was 80 nM. The figures for the EC50 in test [3] (read-out: EC50) and in test [4] were 50 nM and 3440 nM, respectively.
Take `Cc1oc(-c2ccccc2)nc1CCOc1ccc(C[C@@H]2CN(c3nc4ccccc4o3)C[C@@H]2C(=O)O)cc1` (racemic): the figures for the IC50 in test [1] and in test [2] were 2190 nM and 590 nM, respectively. Further, the values for the EC50 in test [3] (read-out: EC50) and in test [4] were 2480 nM and 2080 nM, respectively.
With `Cc1oc(-c2ccccc2)nc1CCOc1cccc(C[C@H]2CN(c3nccc(C(F)(F)F)n3)C[C@H]2C(=O)O)c1`, the values for the IC50 in test [1] and in test [2] were 1120 nM and 110 nM, respectively. Moreover, the 50% effective concentration (EC50) in test [3] (read-out: EC50) and in test [4] was above 10000 nM throughout.
As to `Cc1oc(-c2ccccc2)nc1CCOc1cccc(C[C@H]2CN(c3ccccc3)C[C@H]2C(=O)O)c1`, the values for the half-inhibitory concentration (IC50) in test [1] and in test [2] were 320 nM and 140 nM, respectively. Further, the values for the EC50 in test [3] (read-out: EC50) and in test [4] were 680 nM and above 10000 nM, respectively.
Regarding `Cc1oc(-c2ccccc2)nc1CCOc1cccc([C@@H]2CN(C(=O)Oc3ccccc3)C[C@@H]2CC(=O)O)c1` (racemic), the results for the half-maximal inhibitory concentration (IC50) in test [1] and in test [2] were 4020 nM and 240 nM, respectively. Moreover, the EC50 was determined as 3550 nM in test [3] (read-out: EC50) and 4800 nM in test [4].
For `Cc1oc(-c2ccccc2)nc1CCOc1ccc(C[C@@H]2CN(c3nccc(C(F)(F)F)n3)C[C@@H]2C(=O)O)cc1` (racemic) the same measures were 740 nM, 30 nM, 30 nM and 50 nM.
On the same counts, the results for `Cc1oc(-c2ccccc2)nc1CCOc1ccc([C@@H]2CN(C(=O)Oc3ccccc3)C[C@@H]2C(=O)O)cc1` (racemic) are above 10000 nM, 4470 nM, above 15000 nM and 4180 nM.
Consider `Cc1oc(-c2ccccc2)nc1CCOc1cccc([C@@H]2CN(C(=O)Oc3ccccc3)C[C@@H]2C(=O)O)c1` (racemic), for which the IC50 in test [1] and in test [2] was above 10000 nM throughout. Moreover, the concentration for a half-maximal effect (EC50) is 1650 nM in test [3] (read-out: EC50) and 5650 nM in test [4].
Regarding `CCOC(=O)N1C[C@@H](CCc2cccc(OCCc3nc(-c4ccccc4)oc3C)c2)[C@@H](C(=O)O)C1` (racemic), the figures for the IC50 in test [1] and in test [2] were 2690 nM and 490 nM, respectively. Moreover, the EC50 in test [3] (read-out: EC50) was determined as 200 nM; in test [4], 710 nM.
With `CCOC(=O)N1C[C@@H](Cc2cccc(OCCc3nc(-c4ccccc4)oc3C)c2)[C@@H](C(=O)O)C1` (racemic), the IC50 in test [1] came to 170 nM. In addition, the concentration for a half-maximal effect (EC50) in test [3] (read-out: EC50) came to 10 nM; in test [4] it was 750 nM.
`CCOC(=O)N1C[C@H](Cc2cccc(OCCc3nc(-c4ccccc4)oc3C)c2)[C@H](C(=O)O)C1` returned an IC50 in test [1] above 10000 nM. The values for the concentration for a half-maximal effect (EC50) in test [3] (read-out: EC50) and in test [4] were 10900 nM and above 10000 nM, respectively.
Turning to `CCOC(=O)N1C[C@H](Cc2cccc(OCCc3nc(-c4ccccc4)oc3C)c2)[C@@H](C(=O)O)C1` (racemic), the IC50 in test [1] is 2120 nM. Besides, the figures for the EC50 in test [3] (read-out: EC50) and in test [4] were 150 nM and 2850 nM, respectively.
Compound `CCOC(=O)N1C[C@@H](Cc2cccc(OCCc3nc(-c4ccccc4)oc3C)c2)[C@@H](C(=O)O)C1` had an IC50 in test [1] of 260 nM. The EC50 in test [3] (read-out: EC50) came to 3 nM; in test [4], 9 nM.
`CCOC(=O)N1C[C@@H](Cc2cccc(OCCc3nc(-c4ccccc4)oc3C)c2)[C@@H](CC(=O)O)C1`: in test [1], the IC50 is 5550 nM. The half-maximal effective concentration (EC50) in test [3] (read-out: EC50) was 2870 nM; in test [4], above 10000 nM.
